Measurements published in patent publication US20030032587A1, “Urocortin peptides” (The Salk Institute for Biological Studies, priority 1995, published 2003).
Each block holds one molecule with its values, some of them ahead of it. Bridges are numbered along the chain shown (N, C = ends). Where no end group is shown, it is not given here. [ ]: non-standard residue; d: D form.

Key:
rats = assay: ACTH secretion in vivo, ACTH level in plasma; conditions: 5 μg/kg dose, at 30 minutes
[1] = system: rat anterior pituitary cells; assay: ACTH secretion by anterior pituitary cell cultures in the presence of a challenge dose of ovine CRF (antagonist test); format: cell-based; conditions: challenge dose of ovine CRF; relative to [D-Phe12,Nle21,38]-r/hCRF(12-41)
From the text: A straightforward assay using rat anterior pituitary cells in monolayer culture can be carried out to determine whether a candidate peptide thereof will function as a CRF agonist and stimulate ACTH secretion by activating CRF receptors on such cells. The procedure which is used is that generally set forth in Endocrinology, 91, supra. A very similar assay is used to test for antagonistic properties, using a challenge dose of oCRF or the like.
An in vivo test measuring elevation of mean arterial blood pressure as a result of iv injection is also simply and straightforwardly performed.

[2] = system: mammalian mean arterial blood pressure; assay: in vivo test measuring elevation of mean arterial blood pressure as a result of iv injection; conditions: result in words; indicative of a Ucn antagonist
From the text: The peptide, Ucn(11-40), having the amino acid sequence (see SEQ ID NO: 8): […] is synthesized in the manner described in Example I. To evaluate the biological activity of a candidate peptide as a Ucn antagonist (which will be indicative of its effective binding to CRF receptors), the previously mentioned assay from Endocrinology, 91, supra, is run in the presence of a challenge dose of ovine CRF. […] An in vivo test measuring elevation of mean arterial blood pressure as a result of iv injection is also simply and straightforwardly performed.

[3] = molecular target: T1, human CRF binding protein (human, UniProt P24387 25-322); assay: competitive hCRF-BP ligand binding assay with [125I-DTyr0]hCRF
T1 construct: also called hCRF-BP; CRF-BP
T1 sequence (looked up): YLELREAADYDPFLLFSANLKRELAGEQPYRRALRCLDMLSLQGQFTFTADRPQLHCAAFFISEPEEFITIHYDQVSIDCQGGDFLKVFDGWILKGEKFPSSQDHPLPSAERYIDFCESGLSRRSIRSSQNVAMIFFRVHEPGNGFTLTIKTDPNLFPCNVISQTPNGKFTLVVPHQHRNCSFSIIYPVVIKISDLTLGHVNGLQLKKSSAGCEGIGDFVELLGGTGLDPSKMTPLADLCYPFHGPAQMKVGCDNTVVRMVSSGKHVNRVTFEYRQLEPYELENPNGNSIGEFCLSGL
Method: After incubating with the primary and secondary antisera for 30 minutes each, 1 ml of saline wash is added, and the test tubes are centrifuged at 2000× g for 20 minutes at 4° C. Precipitates are counted in a gamma counter. Inhibitory binding affinity constant (Kᵢ) values are determined using parameters calculated by the LIGAND computer program, Munson et al., Anal. Biochem., 107, 220 (1980), and a Vax/VMS computer system.

[4] = molecular target: CRF receptors on anterior pituitary cells in culture; assay: cell-based or functional assay

Molecule: CC[C@H](C)[C@H](NC(=O)[C@@H](NC(=O)[C@H](CCC(=O)O)NC(=O)[C@H](CCSC)NC(=O)[C@H](CC(C)C)NC(=O)[C@H](CCCCN)NC(=O)[C@H](CCCNC(=N)N)NC(=O)[C@H](CC(N)=O)NC(=O)[C@H](CO)NC(=O)[C@H](Cc1c[nH]cn1)NC(=O)[C@H](C)NC(=O)[C@H](CCC(N)=O)NC(=O)[C@H](CCC(N)=O)NC(=O)[C@H](C)NC(=O)[C@H](CC(C)C)NC(=O)[C@H](CCC(N)=O)NC(=O)[C@H](CCC(=O)O)NC(=O)[C@H](C)NC(=O)[C@H](CCCNC(=N)N)NC(=O)[C@H](C)NC(=O)[C@H](CCSC)NC(=O)[C@H](CCC(=O)O)NC(=O)[C@H](CC(C)C)NC(=O)[C@@H](NC(=O)[C@H](CCC(=O)O)NC(=O)[C@H](CCCNC(=N)N)NC(=O)[C@H](CC(C)C)NC(=O)[C@H](CC(C)C)NC(=O)[C@H](Cc1c[nH]cn1)NC(=O)[C@H](Cc1ccccc1)NC(=O)[C@@H](NC(=O)[C@H](CC(C)C)NC(=O)[C@H](CC(=O)O)NC(=O)[C@H](CC(C)C)NC(=O)[C@H](CO)NC(=O)[C@@H](NC(=O)[C@@H]1CCCN1C(=O)[C@@H]1CCCN1C(=O)[C@H](CCC(=O)O)NC(=O)[C@H](CCC(=O)O)NC(=O)[C@@H](N)CO)[C@@H](C)CC)[C@@H](C)O)C(C)C)[C@@H](C)CC)C(N)=O [r/hCRF, reference compound]
ACTH level in plasma (rats): 422 ± 66 pg/mL

Molecule: H-D-Pro-D-Phe-His-Leu-Leu-Arg-Thr-Leu-Leu-Glu-Leu-Ala-Arg-Thr-Gln-Ser-Gln-Arg-Glu-Glu-Ala-D-Glu-Lys-Asn-Arg-Ile-Ile-Phe-Asp-Ser-Val-NH2 (H-[dP][dF]HLLRTLLELARTQSQREEA[dE]KNRIIFDSV-NH2; lactam 20-23; SMILES CC[C@H](C)[C@H](NC(=O)[C@H](CCCNC(=N)N)NC(=O)[C@H](CC(N)=O)NC(=O)[C@@H]1CCCCNC(=O)CC[C@H](NC(=O)[C@H](CCC(=O)O)NC(=O)[C@H](CCCNC(=N)N)NC(=O)[C@H](CCC(N)=O)NC(=O)[C@H](CO)NC(=O)[C@H](CCC(N)=O)NC(=O)[C@@H](NC(=O)[C@H](CCCNC(=N)N)NC(=O)[C@H](C)NC(=O)[C@H](CC(C)C)NC(=O)[C@H](CCC(=O)O)NC(=O)[C@H](CC(C)C)NC(=O)[C@H](CC(C)C)NC(=O)[C@@H](NC(=O)[C@H](CCCNC(=N)N)NC(=O)[C@H](CC(C)C)NC(=O)[C@H](CC(C)C)NC(=O)[C@H](Cc2c[nH]cn2)NC(=O)[C@@H](Cc2ccccc2)NC(=O)[C@H]2CCCN2)[C@@H](C)O)[C@@H](C)O)C(=O)N[C@@H](C)C(=O)N[C@H](CCC(=O)O)C(=O)N1)C(=O)N[C@H](C(=O)N[C@@H](Cc1ccccc1)C(=O)N[C@@H](CC(=O)O)C(=O)N[C@@H](CO)C(=O)N[C@H](C(N)=O)C(C)C)[C@@H](C)CC)
inhibition of ACTH secretion in vitro, times as effective as the Standard Antagonist (confidence limits) [1]: 4.99 (2.26-11.55)
vasoconstrictive activity causing elevation of mean arterial blood pressure [2]: significant mammalian vasoconstrictive activity

Molecule: H-D-Tyr-His-Leu-Leu-Arg-Thr-Leu-Leu-Glu-Leu-Ala-Arg-Thr-Gln-Ser-Gln-Arg-Glu-Glu-Ala-Glu-Lys-Asn-Arg-Ile-Ile-Phe-Asp-Ser-Val-NH2 (H-[dY]HLLRTLLELARTQSQREEAEKNRIIFDSV-NH2; lactam 19-22; SMILES CC[C@H](C)[C@H](NC(=O)[C@H](CCCNC(=N)N)NC(=O)[C@H](CC(N)=O)NC(=O)[C@@H]1CCCCNC(=O)CC[C@H](NC(=O)[C@H](CCC(=O)O)NC(=O)[C@H](CCCNC(=N)N)NC(=O)[C@H](CCC(N)=O)NC(=O)[C@H](CO)NC(=O)[C@H](CCC(N)=O)NC(=O)[C@@H](NC(=O)[C@H](CCCNC(=N)N)NC(=O)[C@H](C)NC(=O)[C@H](CC(C)C)NC(=O)[C@H](CCC(=O)O)NC(=O)[C@H](CC(C)C)NC(=O)[C@H](CC(C)C)NC(=O)[C@@H](NC(=O)[C@H](CCCNC(=N)N)NC(=O)[C@H](CC(C)C)NC(=O)[C@H](CC(C)C)NC(=O)[C@H](Cc2c[nH]cn2)NC(=O)[C@H](N)Cc2ccc(O)cc2)[C@@H](C)O)[C@@H](C)O)C(=O)N[C@@H](C)C(=O)N[C@@H](CCC(=O)O)C(=O)N1)C(=O)N[C@H](C(=O)N[C@@H](Cc1ccccc1)C(=O)N[C@@H](CC(=O)O)C(=O)N[C@@H](CO)C(=O)N[C@H](C(N)=O)C(C)C)[C@@H](C)CC)
inhibition of ACTH secretion in vitro, times as effective as the Standard Antagonist (confidence limits) [1]: 4.01 (2.32-7.05)
vasoconstrictive activity causing elevation of mean arterial blood pressure [2]: significant mammalian vasoconstrictive activity

Molecule: H-Pro-D-Phe-His-Leu-Leu-Arg-Thr-Leu-Leu-Glu-Leu-Ala-Arg-Thr-Gln-Ser-Gln-Arg-Glu-Glu-Ala-D-Glu-Lys-Asn-Arg-Ile-Ile-Phe-Asp-Ser-Val-NH2 (H-P[dF]HLLRTLLELARTQSQREEA[dE]KNRIIFDSV-NH2; lactam 20-23; SMILES CC[C@H](C)[C@H](NC(=O)[C@H](CCCNC(=N)N)NC(=O)[C@H](CC(N)=O)NC(=O)[C@@H]1CCCCNC(=O)CC[C@H](NC(=O)[C@H](CCC(=O)O)NC(=O)[C@H](CCCNC(=N)N)NC(=O)[C@H](CCC(N)=O)NC(=O)[C@H](CO)NC(=O)[C@H](CCC(N)=O)NC(=O)[C@@H](NC(=O)[C@H](CCCNC(=N)N)NC(=O)[C@H](C)NC(=O)[C@H](CC(C)C)NC(=O)[C@H](CCC(=O)O)NC(=O)[C@H](CC(C)C)NC(=O)[C@H](CC(C)C)NC(=O)[C@@H](NC(=O)[C@H](CCCNC(=N)N)NC(=O)[C@H](CC(C)C)NC(=O)[C@H](CC(C)C)NC(=O)[C@H](Cc2c[nH]cn2)NC(=O)[C@@H](Cc2ccccc2)NC(=O)[C@@H]2CCCN2)[C@@H](C)O)[C@@H](C)O)C(=O)N[C@@H](C)C(=O)N[C@H](CCC(=O)O)C(=O)N1)C(=O)N[C@H](C(=O)N[C@@H](Cc1ccccc1)C(=O)N[C@@H](CC(=O)O)C(=O)N[C@@H](CO)C(=O)N[C@H](C(N)=O)C(C)C)[C@@H](C)CC)
inhibition of ACTH secretion in vitro, times as effective as the Standard Antagonist (confidence limits) [1]: 2.74 (1.02-8.02)
vasoconstrictive activity causing elevation of mean arterial blood pressure [2]: significant mammalian vasoconstrictive activity

Molecule: LSIDLTFHLLRTLLELARTQSQRERAEQ (Printed without NH2 at the C-terminus) [Ucn(5-32)]
binding result [3]: binds

B1: [D-Phe11]-Ucn(11-40) (peptide)
peptide: [dF]HLLRTLLELARTQSQRERAEQNRIIFDSV-NH2
modifications: N-terminus assumed
SMILES: CC[C@H](C)[C@H](NC(=O)[C@H](CCCNC(=N)N)NC(=O)[C@H](CC(N)=O)NC(=O)[C@H](CCC(N)=O)NC(=O)[C@H](CCC(=O)O)NC(=O)[C@H](C)NC(=O)[C@H](CCCNC(=N)N)NC(=O)[C@H](CCC(=O)O)NC(=O)[C@H](CCCNC(=N)N)NC(=O)[C@H](CCC(N)=O)NC(=O)[C@H](CO)NC(=O)[C@H](CCC(N)=O)NC(=O)[C@@H](NC(=O)[C@H](CCCNC(=N)N)NC(=O)[C@H](C)NC(=O)[C@H](CC(C)C)NC(=O)[C@H](CCC(=O)O)NC(=O)[C@H](CC(C)C)NC(=O)[C@H](CC(C)C)NC(=O)[C@@H](NC(=O)[C@H](CCCNC(=N)N)NC(=O)[C@H](CC(C)C)NC(=O)[C@H](CC(C)C)NC(=O)[C@H](Cc1c[nH]cn1)NC(=O)[C@H](N)Cc1ccccc1)[C@@H](C)O)[C@@H](C)O)C(=O)N[C@H](C(=O)N[C@@H](Cc1ccccc1)C(=O)N[C@@H](CC(=O)O)C(=O)N[C@@H](CO)C(=O)N[C@H](C(N)=O)C(C)C)[C@@H](C)CC
antagonism of ACTH secretion under a challenge dose of ovine CRF, potency relative to the Standard Antagonist [D-Phe12, Nle21,38]-r/hCRF(12-41) (times Standard Antagonist) [4]: 0.551

Molecule: DNPSLSIDLTFHLLRTLLELARTQSQRERAEQNRIIFDSV-NH2 [Human Ucn(1-40)]
ACTH secretion, anterior pituitary cell cultures, potency relative to r/hCRF [4]: 3.1 times r/hCRF

Continued, values first:

binding result [3]: binds
Molecule: PPLSIDLTFHLLRTLLELARTQSQR (Printed without NH2) [Ucn(3-27)]

EC50, secretion of ACTH in cultured rodent pituitary cells [4]: 6 pM
Molecule: DDPPLSIDLTFHLLRTLLELARTQSQRERAEQNRIIFDSV-NH2 [rat urocortin (rat Ucn)]

binding result [3]: binds
Molecule: SIDLTFHLLRTLIELARTQSQRER (Printed without NH2 at the C-terminus) [[Ile18]-Ucn(6-29)]

binding result [3]: binds
Molecule: DLTFHLLRTLLELARTQSQRERAEQ (Printed without NH2 at the C-terminus) [Ucn(8-32)]
